Biological target: T1, hROMK (hKir1.1) (Homo sapiens, UniProt P48048)
T1 construct: expressed in transfected cells
T1 sequence (P48048 1-391): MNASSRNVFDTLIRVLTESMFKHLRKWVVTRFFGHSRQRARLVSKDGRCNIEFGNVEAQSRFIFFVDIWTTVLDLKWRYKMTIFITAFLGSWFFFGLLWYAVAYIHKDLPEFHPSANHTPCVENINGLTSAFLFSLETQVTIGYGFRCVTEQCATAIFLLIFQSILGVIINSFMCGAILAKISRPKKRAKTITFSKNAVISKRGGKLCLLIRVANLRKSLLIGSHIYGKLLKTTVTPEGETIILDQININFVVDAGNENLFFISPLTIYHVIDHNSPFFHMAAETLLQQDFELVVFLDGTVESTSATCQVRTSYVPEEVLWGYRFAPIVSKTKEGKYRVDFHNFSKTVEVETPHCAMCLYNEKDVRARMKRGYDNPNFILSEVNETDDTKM
Test: Thallium Flux Assay (ROMK channel functional thallium flux, FLIPR-Tetra)
Assay type: cell-based
Conditions: HEK293 cells stably expressing hROMK (hKir1.1); 30 min compound incubation
How it was run: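 Thallium flux read by FluxOR fluorescence ([…]) for ~10 min after adding 3 mM Tl+/0.3 mM K+ final. Stable HEK-hKir1.1 cells were dye-loaded 90 min, exposed to compound 30 min at room temperature in ouabain/probenecid buffer; IC50 relative to a 3 μM control inhibitor.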

Structure (SMILES)	IC50
O=C1C=C(N2C(=O)C3(CCN(C[C@H](O)c4cnc(-n5cnnn5)cn4)CC3)CC23CC3)CO1 [Example 167, 8-{(2S)-2-hydroxy-2-[5-(1H-tetrazol-1-yl)pyrazin-2-yl]ethyl}-12-(5-oxo-2,5-dihydrofuran-3-yl)-8,12-diazadispiro[2.1.5.2]dodecan-11-one]	10 nM
CC1=CC2(CCN(C[C@H](O)c3ccc(-n4cnnn4)nc3)CC2)C(=O)N1C1=CC(=O)OC1 [Example 174, 8-{(2R)-2-hydroxy-2-[6-(1H-tetrazol-1-yl)pyridin-3-yl]ethyl}-3-methyl-2-(5-oxo-2,5-dihydrofuran-3-yl)-2,8-diazaspiro[4.5]dec-3-en-1-one]	20 nM
CC1=CN(C2=C(C)C(=O)OC2)C(=O)C12CCN(C[C@H](O)c1ccc(-n3cnnn3)nc1)CC2 [Example 175, 8-{(2R)-2-hydroxy-2-[6-(1H-tetrazol-1-yl)pyridin-3-yl]ethyl}-4-methyl-2-(4-methyl-5-oxo-2,5-dihydrofuran-3-yl)-1-oxo-2-aza-8-azoniaspiro[4.5]dec-3-ene]	40 nM
CC1=C(N2CCC3(CC4COCC(C3)N4C[C@H](O)c3ccc(-n4cnnn4)nc3)C2=O)COC1=O (stereo partly drawn) [Example 180, 9-{(2R)-2-hydroxy-2-[6-(1H-tetrazol-1-yl)pyridin-3-yl]ethyl}-1′-(4-methyl-5-oxo-2,5-dihydrofuran-3-yl)-2′H-spiro[7-oxa-9-azabicyclo[3.3.1]nonane-3,3′-pyrrolidin]-2′-one]	40 nM
CC1=C(N2CCC3(CC4COCC(C3)N4C[C@H](O)c3cnc(-n4cnnn4)cn3)C2=O)COC1=O (stereo partly drawn) [Example 181, 9-{(2S)-2-hydroxy-2-[5-(1H-tetrazol-1-yl)pyrazin-2-yl]ethyl}-1′-(4-methyl-5-oxo-2,5-dihydrofuran-3-yl)-2′H-spiro[7-oxa-9-azabicyclo[3.3.1]nonane-3,3′-pyrrolidin]-2′-one]	150 nM
COCC1=C(N2CCC3(CCN(C[C@H](O)c4ccc(-n5cnnn5)nc4)CC3)C2=O)COC1=O [Example 182, 8-{(2R)-2-hydroxy-2-[6-(1H-tetrazol-1-yl)pyridin-3-yl]ethyl}-2-[4-(methoxymethyl)-5-oxo-2,5-dihydrofuran-3-yl]-2,8-diazaspiro[4.5]decan-1-one]	50 nM
CC1=CC2(CCN(C[C@H](O)c3cnc(-n4cnnn4)cn3)CC2)C(=O)N1C1=CC(=O)OC1 [Example 187, 8-{(2S)-2-hydroxy-2-[5-(1H-tetrazol-1-yl)pyrazin-2-yl]ethyl}-3-methyl-2-(5-oxo-2,5-dihydrofuran-3-yl)-2,8-diazaspiro[4.5]dec-3-en-1-one]	100 nM
CC1=CC2(CCN(C[C@H](O)c3ccc(-n4cnnn4)nn3)CC2)C(=O)N1C1=CC(=O)OC1 [Example 188, 8-{(2S)-2-hydroxy-2-[6-(1H-tetrazol-1-yl)pyridazin-3-yl]ethyl}-3-methyl-2-(5-oxo-2,5-dihydrofuran-3-yl)-2,8-diazaspiro[4.5]dec-3-en-1-one]	50 nM
CC1(C)CC2(CCN(C[C@H](O)c3ccc(-n4cnnn4)nn3)CC2)C(=O)N1C1=CC(=O)OC1 [Example 189, 8-{(2S)-2-hydroxy-2-[6-(1H-tetrazol-1-yl)pyridazin-3-yl]ethyl}-3,3-dimethyl-1-oxo-2-(5-oxo-2,5-dihydrofuran-3-yl)-2-aza-8-azoniaspiro[4.5]decane]	50 nM
CC1(C)CC2(CCN(C[C@@H](O)c3ccc(-n4cnnn4)nn3)CC2)C(=O)N1C1=CC(=O)OC1 [Example 190, 8-{(2R)-2-hydroxy-2-[6-(1H-tetrazol-1-yl)pyridazin-3-yl]ethyl}-3,3-dimethyl-1-oxo-2-(5-oxo-2,5-dihydrofuran-3-yl)-2-aza-8-azoniaspiro[4.5]decane]	50 nM
COCC1=C(N2CCC3(CCN(C[C@H](O)c4ccc(-n5cnnn5)nn4)CC3)C2=O)COC1=O [Example 191, 8-{(2S)-2-hydroxy-2-[6-(1H-tetrazol-1-yl)pyridazin-3-yl]ethyl}-2-[4-(methoxymethyl)-5-oxo-2,5-dihydrofuran-3-yl]-2,8-diazaspiro[4.5]decan-1-one]	70 nM
COCC1=C(N2CCC3(CCN(C[C@H](O)c4cnc(-n5cnnn5)cn4)CC3)C2=O)COC1=O [Example 200, 8-{(2S)-2-hydroxy-2-[5-(1H-tetrazol-1-yl)pyrazin-2-yl]ethyl}-2-[4-(methoxymethyl)-5-oxo-2,5-dihydrofuran-3-yl]-2,8-diazaspiro[4.5]decan-1-one]	80 nM
O=C1C=C(N2C=CC3(CCN(C[C@H](O)c4ccc(-n5cnnn5)nn4)CC3)C2=O)CO1 [Example 201, 8-{(2S)-2-hydroxy-2-[6-(1H-tetrazol-1-yl)pyridazin-3-yl]ethyl}-1-oxo-2-(5-oxo-2,5-dihydrofuran-3-yl)-2-aza-8-azoniaspiro[4.5]dec-3-ene]	120 nM
CC1=C(N2CCC3(CCN(CCc4ccc(-n5cnnn5)nn4)CC3)C2=O)COC1=O [Example 232, 8-(2-(6-(1H-Tetrazol-1-yl)pyridazin-3-yl)ethyl)-2-(4-methyl-5-oxo-2,5-dihydrofuran-3-yl)-2,8-diazaspiro[4.5]decan-1-one]	10 nM
CC1=C(N2CCC3(CCN(CCc4ccc(-n5cnnn5)nc4)CC3)C2=O)COC1=O [Example 233]	10 nM
CC1=C(N2CCC3(CCN(CCc4cnc(-n5cnnn5)cn4)CC3)C2=O)COC1=O [Example 234, 2-(4-methyl-5-oxo-2,5-dihydrofuran-3-yl)-1-oxo-8-{2-[5-(1H-tetrazol-1-yl)pyrazin-2-yl]ethyl}-2-aza-8-azoniaspiro[4.5]decane]	10 nM
CC1=C(N2CCC3(CC4CCC(C3)N4CCc3ccc(-n4cnnn4)nn3)C2=O)COC1=O [Example 235, (1S,5S)-1′-(4-methyl-5-oxo-2,5-dihydrofuran-3-yl)-2′-oxo-8-{2-[6-(1H-tetrazol-1-yl)pyridazin-3-yl]ethyl}spiro[8-azoniabicyclo[3.2.1]octane-3,3′-pyrrolidine]]	10 nM
CC1=C(N2CCC3(CCN(CCc4nnc(-n5cnnn5)cc4C)CC3)C2=O)COC1=O [Example 236, 2-(4-methyl-5-oxo-2,5-dihydrofuran-3-yl)-8-{2-[4-methyl-6-(1H-tetrazol-1-yl)pyridazin-3-yl]ethyl}-1-oxo-2-aza-8-azoniaspiro[4.5]decane]	4 nM
CC1=C(N2CCC3(CCN(CCc4cc(C)c(-n5cnnn5)nn4)CC3)C2=O)COC1=O [Example 237, 2-(4-methyl-5-oxo-2,5-dihydrofuran-3-yl)-8-{2-[5-methyl-6-(1H-tetrazol-1-yl)pyridazin-3-yl]ethyl}-1-oxo-2-aza-8-azoniaspiro[4.5]decane]	20 nM
CC1=C(N2CCC3(CCN(CCc4ccc(-n5cnnn5)cn4)CC3)C2=O)COC1=O [Example 238, 2-(4-methyl-5-oxo-2,5-dihydrofuran-3-yl)-1-oxo-8-{2-[5-(1H-tetrazol-1-yl)pyridin-2-yl]ethyl}-2-aza-8-azoniaspiro[4.5]decane]	10 nM
CC1=C(N2CCC3(CC4COCC(C3)N4CCc3ccc(-n4cnnn4)nn3)C2=O)COC1=O [Example 239, (1R,5S,9r)-1′-(4-methyl-5-oxo-2,5-(dihydrofuran-3-yl)-2′-oxo-9-{2-[6-(1H-tetrazol-1-yl)pyridazin-3-yl]ethyl}spiro[7-oxa-9-azoniabicyclo[3.3.1]nonane-3,3′-pyrrolidine]]	320 nM
C[C@H]1CC2(CCN(CCc3cnc(-n4cnnn4)cn3)CC2)C(=O)N1C1=CC(=O)OC1 [Example 246, 3(S)-methyl-1-oxo-2-(5-oxo-2,5-dihydrofuran-3-yl)-8-{2-[5-(1H-tetrazol-1-yl)pyrazin-2-yl]ethyl}-2-aza-8-azoniaspiro[4.5]decane]	20 nM
CC1=C(N2C=CC3(CCN(CCc4ccc(-n5cnnn5)nn4)CC3)C2=O)COC1=O [Example 247, 2-(4-methyl-5-oxo-2,5-dihydrofuran-3-yl)-1-oxo-8-{2-[6-(1H-tetrazol-1-yl)pyridazin-3-yl]ethyl}-2-aza-8-azoniaspiro[4.5]dec-3-ene]	20 nM
CC1=C(N2C=CC3(CCN(CCc4nnc(-n5cnnn5)cc4C)CC3)C2=O)COC1=O [Example 248, 2-(4-methyl-5-oxo-2,5-dihydrofuran-3-yl)-8-{2-[4-methyl-6-(1H-tetrazol-1-yl)pyridazin-3-yl]ethyl}-1-oxo-2-aza-8-azoniaspiro[4.5]dec-3-ene]	20 nM
O=C1C=C(N2C=CC3(CCN(CCc4ccc(-n5cnnn5)nn4)CC3)C2=O)CO1 [Example 249, 1-oxo-2-(5-oxo-2,5-dihydrofuran-3-yl)-8-{2-[6-(1H-tetrazol-1-yl)pyridazin-3-yl]ethyl}-2-aza-8-azoniaspiro[4.5]dec-3-ene]	40 nM
CC1=C(N2CCC3(CCN(CCc4cnc(-n5cnnn5)cc4CO)CC3)C2=O)COC1=O [Example 250, 8-{2-[4-(hydroxymethyl)-6-(1H-tetrazol-1-yl)pyridin-3-yl]ethyl}-2-(4-methyl-5-oxo-2,5-dihydrofuran-3-yl)-1-oxo-2-aza-8-azoniaspiro[4.5]decane]	80 nM
CC1=C(N2C=CC3(CCN(CCc4cnc(-n5cnnn5)cn4)CC3)C2=O)COC1=O [Example 251, 2-(4-methyl-5-oxo-2,5-dihydrofuran-3-yl)-1-oxo-8-{2-[5-(1H-tetrazol-1-yl)pyrazin-2-yl]ethyl}-2-aza-8-azoniaspiro[4.5]dec-3-ene]	50 nM

— patent US9765074B2, “Inhibitors of the renal outer medullary potassium channel” (Merck Sharp & Dohme Corp., priority 2013, dated 2017)
